Measurements as given in patent US7429448B2, “Therapeutic use of the SMR1 protein and active derivatives thereof” (Institut Pasteur, priority 1998, dated 2008).
One block for each molecule: values may come before it. Square brackets hold non-standard residues; d marks the D form. Ends that are not written are not given here. pGlu = O=C1CC[C@@H](C(=O)O)N1

Tests used:
[1] = tested on: pentapeptide binding sites; test: In vivo displacement of ^3H-pentapeptide uptake by coinjection of 100-fold excess unlabeled peptide; set-up: species or system rat; conditions: for specific labeling percentage: 60 min, 100-fold excess unlabeled peptide
Description: Biological receptor sites have two essential characteristics that allow specific binding to be identified, in vivo; they have a high affinity for the ligand and the binding is saturable (Whitcomb et al., 1993). Therefore, displacement experiments, using parallel systemic administration of an excess of the corresponding unlabeled peptide has been performed. Furthermore, the specific cellular localization of labeled pentapeptide to target tissues has been identified by section microscopic autoradiography.
(§1) The cellular-site localization for physiological concentrations of labeled pentapeptide was investigated by paraffin- or resin-section microscopic autoradiography procedure. Sixty minutes after ^3H-pentapeptide (555 KBq, 160 ng or 250 pmoles) i.v. administration, the anesthetized male rats were perfused via the jugular veins with ice-cold Krebs Ringer Bicarbonate Glucosed buffer and then 0.5% paraformaldehyde/0.5% glutaraldehyde fixative PBS buffer (plus glucose 1.6%, CaCl2 0.002% and DMSO 1%) (50 ml/5 min. for each). Tissues were rapidly removed and harvested for paraffin sectioning (Paraplast plus-Sherwood medical, OSI, France) or for resin sectioning (histo-resin Leica, France). All sections were cut at 5 microns (Reichert Jung for paraffin and RM2155 Leica for resin sections) and mounted on Superfrost/Plus glass slides (non gelatin-coated). Paraffin was removed with xylene, and sections were carried through a descending, then an ascending ethanol series (from 100 to 50%, V/V and reverse). Dried sections were then processed for light microscope autoradiography by attaching nuclear emulsion-coated (Kodak, NTB2, diluted 1:1 with distilled water) coverslips to them. After air drying for 2 hrs at room temperature the autoradiographs were exposed for 6 to 10 weeks in light-tight boxes at 4° C. Radiosensitive coverslips were developed in Kodak D19 (3 min.) developer and fixed in Kodak fixer (3 min.) Sections were counterstained with Harris' hematoxylin (Prolabo, France) and Toluidine blue (Sigma, France), dehydrated and mounted in Eukitt medium. The tissue and overlying silver grains were viewed and photographed with a Leica photomicroscope equipped with bright-field optics (DMRD Leitz, Leica).
The tritium activity was determined as counts/mm^2.
In the case of radioactive quantification of organ sections or acid extracts, using a liquid scintillation counter (MR300Kontron), the tritium activity was determined as cpm/mg protein. Protein concentration was determined by the Bradford method (Bradford et al., 1976).

[2] = tested on: ^3H-pentapeptide binding sites; test: Cellular localization of ^3H-pentapeptide binding sites by light microscopic autoradiography; assay type: in vivo, rat
Protocol: as §1

[3] = Pentapeptide metabolic and pharmacokinetic studies after i.v. bolus of tritiated pentapeptide; assay type: in vivo, rat
Protocol: The in vivo time course of distribution, metabolism and elimination of the pentapeptide was investigated in anesthetized adult male rats using physiological concentrations of circulating tritiated pentapeptide.
Anesthetized male rats were given a bolus intravenous injection of 170 pmoles or 110 ng tritiated pentapeptide diluted in 100 μl PBS Dulbecco's. Blood was collected in tubes containing a mixture of peptidase inhibitors described above, via a silastic catheter implanted into the external jugular vein. Blood was withdrawn just before and 2, 4, 6, 8, 10, 20, 30, 45, 60, 90 and 120 min. after peptide administration. Two milliliters of blood per rat were taken in all and the entire urinary bladder content was collected at a last selected point.
The biological samples were submitted to centrifugation and Parapak Q extraction conditions, as described above. Chromatrography using HPLC procedure described above and in the reference (Rougeot et al., 1994) was then applied to each extracted sample. The ODS AQ RP-C18 was used for identification of amino-terminal metabolites and Pep RPC HR C18 (Pharmacia, France) for identification of carboxyl-terminal metabolites. The radioactivity content of samples before and after chromatographic separations was determined using a beta counter (Kontron, MR300).

[4] = rat, in vivo
Protocol: Labeled compound i.e. 6.66 MBq, 3 nmoles or 2 mg for whole body autoradiography (WBA) and 370-555 KBq, 170-250 pmoles or 110-160 ng for the pharmacokinetic and cellular-site distribution studies was diluted in 100-200 ml of phosphate-buffered saline (PBS Dulbecco's, Bio Media, France) and administered intravenously into the jugular vein of anesthetized rats (halothan for WBA or pentobarbital for all the other experiments).
The target tissues for the final secretory maturation product of SMR1, the pentapeptide, was examined, in vivo, by the whole body autoradiography procedure according to the method of Ullberg (Ullberg et al., 1981).
The five week-old rats were sacrificed under halothane, at 90 sec., 3, 60 and 240 min. after i.v. injection of 3 nmoles (6.66 MBq or 2 μg) of tritiated pentapeptide. At the selected time, the restrained animal was immediately immersed in a −80° C. mixture of dry ice and isopentane, to prevent artifactual tracer redistribution. After 48 hours in self-sealing plastic stored at −30° C., the animal was then blocked in mounting medium. Whole body sagittal sections (20 mm) of the frozen rat were made at −30° C. with a cryostat (whole body slicing microtome Leitz 400 with a chest mobile freezer Leitz O M, Leica, France). Sections adhering to Scotch tape were left in a freezer, temperature −30° C., for 4 days to insure complete drying. The tapes were placed in a film cassette with ^3H Hyperfilm (Amersham, France) at −20° C. After two weeks the films were developed in Kodak D19 developer and fixed in Kodak fixer.
Data from whole body sections or individual organ sections placed in the gas-chamber detector were collected for 8 hr. or 50 hr., respectively. The number of counts per pixel was recorded in the β imager 2200 (Biospace, France) with a surface detector of 20×20 cm^2, followed by computer-assisted image analysis with the β Vision program using a HP Vectra computer. The tritium activity was determined as counts/mm^2. The linearity of this method of detection allowed measurement of the non specific binding of ^3H-pentapeptide, measured in various structures or compartments within the section with apparent non binding sites for the peptide (background tissues, e.g. muscle and cardiac blood except brain and spinal cord) or in the same labeled structure, in displacement experiments.

[5] = Chromatographic characterization of radioactive peptide uptake by tissues; assay type: in vivo, rat; conditions: 180 min after injection
Protocol: The chromatographic characteristics of the labeled compound associated, in vivo, to target organs were assessed by HPLC.
At selected time points (2 and 180 min.) after administration of tritiated pentapeptide, the anesthetized rats were sacrificed (cardiac blood puncture) and tissues quickly removed on ice. The tissues were immediately homogenized at 4° C. in 5-10 volumes of 0.1 M chlorhydric acid using a potter homogenizer (demineralization of bone tissue was realized after 24-48 h at 4° C. in guanidium hydrochloride and EDTA pretreatment, 4 M and 0.25 M final concentration, respectively). Homogenates were centrifuged for 30 min. at 4° C. and 15,000 g. To determine total radioactivity, aliquots of the supernatant solution were added to 50 volumes of Biofluor (NEN, Dupont de Nemours, France) and counted in a liquid scintillation counter.
To determine the radioactivity in the pentapeptide fraction, aliquots of the tissue extracts were submitted to a methanol-extraction procedure (Rougeot et al., 1994) after neutralization with Tris/HCl pH 8.5 containing 16 mM DTPA (DiethyleneTriaminePenta-Acetic acid, Sigma, France). […] Fractions were collected every 60 sec. and analyzed for radioactivity using a liquid scintillation counter.

[6] = rat, in vivo; remark: listed apart in the source
Protocol: FIG. 4. Quantitative profile of radioactivity in various tissues following administration of 100 pmoles ^3H-hexapeptide, 60 min post-dose or plus 100 nmoles unlabelled peptide to non specific binding.
Quantification was assessed using a spectrometer and calculated as cpm/mg protein from whole tissue extracts.
FIG. 5. Quantitative profile of radioactivity in various tissues following administration of 5 pmoles ^125I-undecapeptide (VRGPRRQHNPR, SEQ ID NO: 7), 10 min post-dose or plus 100 nmoles unlabeled peptide to non specific binding.
Quantification was assessed using a gama-spectrometer and calculated as cpm/g tissue.

[7] = target: anti-pentapeptide serum (rabbit antiserum raised against QHNPR conjugated to egg albumin); test: competitive liquid phase RIA, displacement of 125I-labelled pentapeptide from the antiserum
[8] = single i.v. injection of 110 ng

- preferred target organs [6]: kidney and pancreas
Molecule: VRGPRRQHNPR [undecapeptide]
- target organs compared with the pentapeptide [6]: almost the same as the target organs of the pentapeptide

- cross-reactivity [7]: < 0.01%
Molecule: QHNP [tetrapeptide sequence (QHNP)]

Continued, molecule first:

Molecule: QHNPR [pentapeptide, (Gln1)-His-Asn-Pro-Arg, tracer form is (Glp1/Gln1)-His-Asn-(3,4^3H)Pro-Arg]
- specific labeling percentage ([1]; glandular mucosa of the stomach): 38-61%
- specific labeling percentage ([1]; long bone): 29-38%
- specific labeling percentage ([1]; pancreatic lobules): 37-55%
- displacement of uptake by excess cold ligand ([1]; renal outer medullary): almost complete displacement
- specific labeling percentage ([1]; submandibular lobules): 51-91%
- cellular localization of silver grains ([2]; bone tissue): the trabeculae bone spaces
- cellular localization of silver grains ([2]; dental tissue, upper incisor root): over the entire dentin layer
- cellular localization of silver grains ([2]; glandular gastric mucosa): over the chief or peptic cells
- cellular label ([2]; glomeruli, epithelia of distal and collecting tubules): No specific cellular label
- cellular localization of silver grains ([2]; kidney, 60 min, physiological concentration): over the epithelial cells of the S3 segment of the straight portion of the proximal tubules
- cellular label ([2]; pancreatic ducts and islets of Langerhans): No label was observed
- cellular localization of silver grains ([2]; pancreatic tissue): over the cells of acini
- cellular label ([2]; submandibular tissue): no selective cell association of label was identifiable
- amount eliminated through glomerular filtration ([3]; over a 60 min period, anesthetized rats, 170 pmoles dose): 6 pmol
- pentapeptide-binding substance complex as share of the circulating peptide fraction ([3]; plasma): approximately 45%
- urine radioactivity that is pentapeptide metabolites ([3]; rat, in vivo): Approximately 80%
- time from which plasma concentration is back close to a basal level [3, 8]: ≥ 30 min
- time to maximal plasma level [3, 8]: ≤ 2 min
- infused pentapeptide metabolized in the bloodstream ([3]; within 4 min): 35%
- radioactivity in the intestinal content [4]: No radioactivity was found
- time by which binding to tissue sites has occurred [4]: ≤ 90 s
- time over which binding is stable [4]: 240 min
- tissue to blood ratio [4]: ~2
- radioactive extract representing metabolites ([5]; DTPA): 8±6%
- radioactive peptide fraction extracted by methanol ([5]; DTPA 16 mM added): 53±9%

Molecule: RQHNPR [hexapeptide]
- preferred target organs [6]: kidney and pancreas
- retention by the glandular mucosa of stomach [6]: very efficiently retained
- target organs compared with the pentapeptide [6]: almost the same as the target organs of the pentapeptide

Molecule: QHNPR [(Gln1)-His-Asn-Pro-Arg, SMR1-derived pentapeptide QHNPR (unlabelled)]
- amount of standard for 50% displacement [7]: < 570 fmol
- detection limit (80% binding) [7]: 106 fmol

Molecule: [pGlu]HNPR [(Glp1)-His-Asn-Pro-Arg]
- amount of standard for 50% displacement [7]: < 570 fmol
- detection limit (80% binding) [7]: 106 fmol
